Laboratory results: patent EP2518054A1, “AMIDE COMPOUND” (Takeda Pharmaceutical Company Limited, priority 2009, dated 2011)

biological target: T1, human GPR52 (Homo sapiens, UniProt Q9Y2T5); assay: Increase of intracellular cAMP concentration in human GPR52-expressing CHO cell (AlphaScreen cAMP assay); type: cell-based; details: CHO, 1µM test compound; 100% = cAMP with 1 µM Reference Example 79, 0% = DMSO; human GPR52-expressing CHO(dhfr-) cells, 37°C, 30 min; read-out: GPR52 agonist activity (%)
T1 construct: expressed in transfected cells; host or cells: CHO(dhfr-) cells
T1 sequence (Q9Y2T5 whole entry): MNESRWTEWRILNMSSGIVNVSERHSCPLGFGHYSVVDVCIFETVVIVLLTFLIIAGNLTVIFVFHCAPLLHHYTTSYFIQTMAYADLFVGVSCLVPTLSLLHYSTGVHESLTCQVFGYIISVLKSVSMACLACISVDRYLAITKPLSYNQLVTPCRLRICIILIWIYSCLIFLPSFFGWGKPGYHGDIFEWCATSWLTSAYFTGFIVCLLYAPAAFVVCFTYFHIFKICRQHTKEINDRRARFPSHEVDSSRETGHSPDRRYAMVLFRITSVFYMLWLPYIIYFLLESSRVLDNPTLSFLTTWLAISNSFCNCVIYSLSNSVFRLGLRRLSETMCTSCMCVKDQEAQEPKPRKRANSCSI
Method: Increase of intracellular cAMP concentration in human GPR52-expressing CHO cell
Using OptiPlate-384 (PerkinElmer Inc.), 1×10^4 human GPR52-expressing CHO(dhfr-) cells were incubated together with various concentration(10^-5µM - 10µm) of a test compound in an assay buffer (30 µL, HBSS (containing Ca^2+ and Mg^2+), 0.5% BSA, 100 µM IBMX, 100 µM Ro20-1724, 5 mM HEPES (pH 7.55)) at 37°C for 30 min. Thereafter, according to the protocol of AlphaScreen CAMP Assay Kit (PerkinElmer Inc.), the intracellular cAMP concentration was measured by EnVision (PerkinElmer Inc.). The GPR52 agonist activity was calculated, assuming the intracellular cAMP concentration in the presence of […] N-(2-hydroxyethyl)-3-[2-[3-(trifluoromethyl)benzyl]-1-benzofuran-4-yl]benzamide (Reference Example 79) to be 100% and assuming the intracellular cAMP concentration when DMSO was added instead of the test compound to be 0%.

Which activity at 1 µM does the source give for `Cc1nn(-c2cccc3sc(Cc4cc(F)cc(Cl)c4)cc23)c(C)c1C(=O)NCC(N)=O` [Example 107, N-(2-amino-2-oxoethyl)-1-[2-(3-chloro-5-fluorobenzyl)-1-benzothiophen-4-yl]-3,5-dimethyl-1H-pyrazole-4-carboxamide] here?
The activity at 1 µM was 100%.

Which activity at 1 µM does the source give for `Cc1nn(-c2cccc3cc(Cc4cc(F)cc(Cl)c4)sc23)c(C)c1C(=O)NCC(N)=O` [Example 55, N-(2-amino-2-oxoethyl)-1-[2-(3-chloro-5-fluorobenzyl)-1-benzothiophen-7-yl]-3,5-dimethyl-1H-pyrazole-4-carboxamide] here?
Its activity at 1 µM is 96%.

`Cc1nn(-c2cccc3nn(Cc4cccc(C(F)(F)F)c4)cc23)c(C)c1C(=O)NCCO` [Example 79, N-(2-hydroxyethyl)-3,5-dimethyl-1-[2-[3-(trifluoromethyl)benzyl]-2H-indazol-4-yl]-1H-pyrazole-4-carboxamide] was tested. Which activity at 1 µM did it give?
Its activity at 1 µM is 102%.

Which activity at 1 µM does the source give for `Cc1cccc(Cc2cc3cccc(-n4nc(C)c(C(=O)NCC(N)=O)c4C)c3s2)c1` [Example 93, N-(2-amino-2-oxoethyl)-3,5-dimethyl-1-[2-(3-methylbenzyl)-1-benzothiophen-7-yl]-1H-pyrazole-4-carboxamide] here?
The activity at 1 µM was 70%.

`NC(=O)CNC(=O)c1cn(-c2cccc3cc(Cc4cccc(C(F)(F)F)c4)sc23)nc1C(F)(F)F` [Example 21, N-(2-amino-2-oxoethyl)-3-(trifluoromethyl)-1-[2-[3-(trifluoromethyl)benzyl]-1-benzothiophen-7-yl]-1H-pyrazole-4-carboxamide] was tested. Which activity at 1 µM did it give?
The activity at 1 µM was 94%.

Which activity at 1 µM does the source give for `NC(=O)CNC(=O)c1cn(-c2cccc3cc(Cc4cccc(C(F)(F)F)c4)sc23)nc1C1CC1` [Example 28, N-(2-amino-2-oxoethyl)-3-cyclopropyl-1-[2-[3-(trifluoromethyl)benzyl]-1-benzothiophen-7-yl]-1H-pyrazole-4-carboxamide] here?
The activity at 1 µM was 95%.

Which activity at 1 µM does the source give for `O=C(NCCO)c1sc(-c2cccc3nn(Cc4cccc(C(F)(F)F)c4)cc23)nc1C(F)(F)F` [Example 88, N-(2-hydroxyethyl)-4-(trifluoromethyl)-2-[2-[3-(trifluoromethyl)benzyl]-2H-indazol-4-yl]-1,3-thiazole-5-carboxamide] here?
Its activity at 1 µM is 83%.

With `Cc1nn(-c2ccc(F)c3cc(Cc4cc(F)cc(Cl)c4)sc23)c(C)c1C(=O)NCCO` [Example 60, 1-[2-(3-chloro-5-fluorobenzyl)-4-fluoro-1-benzothiophen-7-yl]-N-(2-hydroxyethyl)-3,5-dimethyl-1H-pyrazole-4-carboxamide] as the molecule, how does the activity at 1 µM read?
The activity at 1 µM was 99%.

With `Cc1nc(-c2cccc3oc(Cc4cccc(C(F)(F)F)c4)cc23)sc1C(N)=O` [Example 44, 4-methyl-2-[2-[3-(trifluoromethyl)benzyl]-1-benzofuran-4-yl]-1,3-thiazole-5-carboxamide] as the molecule, how does the activity at 1 µM read?
Its activity at 1 µM is 92%.

`Cc1nn(-c2cccc3cc(Cc4cccc(C(F)(F)F)c4)sc23)c(C)c1C(=O)NCCO` [Example 52, N-(2-hydroxyethyl)-3,5-dimethyl-1-[2-[3-(trifluoromethyl)benzyl]-1-benzothiophen-7-yl]-1H-pyrazole-4-carboxamide] was tested. Which activity at 1 µM did it give?
Its activity at 1 µM is 107%.

With `Cc1nn(-c2ccc(F)c3cc(Cc4cccc(C(F)(F)F)c4)sc23)c(C)c1C(N)=O` [Example 61, 1-[4-fluoro-2-[3-(trifluoromethyl)benzyl]-1-benzothiophen-7-yl]-3,5-dimethyl-1H-pyrazole-4-carboxamide] as the molecule, how does the activity at 1 µM read?
The activity at 1 µM was 93%.

`Cc1nc(-c2cccc3cc(Cc4cccc(C(F)(F)F)c4)sc23)sc1C(=O)NCCO` [Example 39, N-(2-hydroxyethyl)-4-methyl-2-[2-[3-(trifluoromethyl)benzyl]-1-benzothiophen-7-yl]-1,3-thiazole-5-carboxamide] was tested. Which activity at 1 µM did it give?
The activity at 1 µM was 93%.

`Cc1nn(-c2cccc3oc(Cc4cccc(C(F)(F)F)c4)cc23)c(C)c1C(=O)NCCO` [Example 75, N-(2-hydroxyethyl)-3,5-dimethyl-1-[2-[3-(trifluoromethyl)benzyl]-1-benzofuran-4-yl]-1H-pyrazole-4-carboxamide] was tested. Which activity at 1 µM did it give?
Its activity at 1 µM is 101%.

same assay, conditions: concentration of the test compound at which it shows 50% activity; human GPR52-expressing CHO(dhfr-) cells; read-out: GPR52 agonist activity EC50

How did the EC50 turn out when `Cc1nn(-c2cccc3oc(Cc4cccc(C(F)(F)F)c4)cc23)c(C)c1C(=O)NCCO` [Example 75, N-(2-hydroxyethyl)-3,5-dimethyl-1-[2-[3-(trifluoromethyl)benzyl]-1-benzofuran-4-yl]-1H-pyrazole-4-carboxamide] was run?
Its EC50 is 0.03 µM.
